Test results from EP0012051A1, “3-Amino-2,4-dioxo-(1H,3H)-quinazolines, process for their preparation and therapeutic composition containing them” (Société dite: BERRI-BALZAC, priority 1978, dated 1980).

How the values were obtained:
Assay type in all cases: in vivo
rats mâles = test: Diuretic action with water overload in the rat (modified Lipschitz technique, oral); conditions: for K = nbre de meq/L pour 100 g d'animal / Na = nbre de meq/L pour 100 g d'animal / dV = pourcentage du volume d'urine émise par rapport au lot témoin et ramené à 100 g de poids corporel: rat, oral, surcharge hydrique; for K = nbre de meq/L pour 100 g d'animal / Na = nbre de meq/L pour 100 g d'animal: 6 h urine; for dV = pourcentage du volume d'urine émise par rapport au lot témoin et ramené à 100 g de poids corporel: 6 h; for diurèse: summary in words of tableaux I à III
Text: (§1) L'étude de l'activité diurétique a été effectuée comme suit : • l'expérience a été réalisée en utilisant la technique de LIPSCHITZ & Coll. (J. Pharm. Exp. Ther. 1943, 79, p. 97) modifiée pour la circonstance.
(§2) Des lots de 6 rats mâles, pesant environ 150 g, mis à jeun et privés de boisson la veille de l'essai, ont été placés par deux dans des cages à métabolisme pour une durée de 6 heures.
Les produits à essayer ont été administrés par voie orale, à la sonde, en même temps qu'une surcharge hydrique (eau du robinet à 37 °C), à raison de 5 ml pour 100 g de poids corporel.
(§3) Les volumes urinaires ont été recueillis et mesurés toutes les heures, et la quantité d'urine excrétée est donnée en ml par heure et par rat.
(§4) Les dosages du chlore, du sodium et du potassium sont effectués sur les prélèvements de 6 heures et sont exprimés en Meq par litre d'urine et par 100 g de rat.
(§5) A partir de ces chiffres et par rapport aux témoins, des pourcentages d'augmentation ou de diminution de la diurèse ont pu être calculés.
L'excrétion urinaire est donnée par le rapport : [formula]
L'activité diurétique est obtenue en faisant le rapport : • E.U. traités • E.U. témoins
Dans le tableau I figure l'action diurétique avec surcharge hydrique pour les composés A, B et C, et pour le furosémide et l'hydrochlorothiazide.

RAT = test: Diuretic action with water-and-sodium overload in the rat; conditions: for fuite de potassium: rat
Text: as §1, §2, §3, §4, §5
Dans le tableau II figure l'action diurétique avec surcharge hydrosodée pour le composé A et le furosémide.

chien Beagle = test: Diuresis in the Beagle dog after injection, urine output over one hour; conditions: for Emission d'urine en ml TOTAL: TOTAL (60 mn)
[1] = 2 mg/kg, une heure, versus témoin

## CN(C)n1c(=O)[nH]c2cc(Cl)c(S(N)(=O)=O)cc2c1=O [Composé A, Chloro-7 diméthylamino-3 dioxo-2,4 (1H,3H) sulfonamido-6 quinazoline]
Rats mâles; dose 0,1 mg/kg
  K = nbre de meq/L pour 100 g d'animal: +19 meq/L pour 100 g d'animal
Rats mâles; dose 1 mg/kg
  K = nbre de meq/L pour 100 g d'animal: +18 meq/L pour 100 g d'animal
  Na = nbre de meq/L pour 100 g d'animal: +139,4 meq/L pour 100 g d'animal
Rats mâles; dose 10 mg/kg
  dV = pourcentage du volume d'urine émise par rapport au lot témoin et ramené à 100 g de poids corporel: +38,3%
  K = nbre de meq/L pour 100 g d'animal: +71 meq/L pour 100 g d'animal
  Na = nbre de meq/L pour 100 g d'animal: +551 meq/L pour 100 g d'animal
Rats mâles; dose 25 mg/kg
  dV = pourcentage du volume d'urine émise par rapport au lot témoin et ramené à 100 g de poids corporel: +39,7%
  K = nbre de meq/L pour 100 g d'animal: +67 meq/L pour 100 g d'animal
  Na = nbre de meq/L pour 100 g d'animal: +672 meq/L pour 100 g d'animal
Rats mâles; dose 50 mg/kg
  dV = pourcentage du volume d'urine émise par rapport au lot témoin et ramené à 100 g de poids corporel: +23,6%
  K = nbre de meq/L pour 100 g d'animal: +90 meq/L pour 100 g d'animal
  Na = nbre de meq/L pour 100 g d'animal: +606 meq/L pour 100 g d'animal
Rats mâles
  diurèse: augmentent la diurèse
RAT; 10 mg/kg composé A sensiblement égale à 25 mg/kg de furosémide
  action diurétique par rapport au furosémide: sensiblement double
RAT; dose 10 mg/kg (doses équivalentes)
  fuite de potassium: 19%
Chien Beagle; 2 mg/kg, une heure
  sodium éliminé dans le volume d'urine émis: ~10 fois celui du témoin
Chien Beagle; [1]
  la diurèse est multipliée par: 600/100
  taux de potassium multiplié par: 1,2
Chien Beagle; Dose I.V. 1 mg/kg, 0,5 mn
  Emission d'urine en ml 0,5 mn: 3,5 ml
Chien Beagle; Dose I.V. 1 mg/kg
  Emission d'urine en ml 5-10 mn: 5,0 ml
  Emission d'urine en ml - 20 mn: 8,5 ml
  Emission d'urine en ml - 30 mn: 7,0 ml
  Emission d'urine en ml - 40 mn: 9,0 ml
  Emission d'urine en ml - 50 mn: 8,0 ml
  Emission d'urine en ml - 60mn: 9,0 ml
  Emission d'urine en ml TOTAL: 50,0 ml
Chien Beagle; Dose I.V. 2 mg/kg, 0,5 mn
  Emission d'urine en ml 0,5 mn: 8,0 ml
Chien Beagle; Dose I.V. 2 mg/kg
  Emission d'urine en ml 5-10 mn: 14,5 ml
  Emission d'urine en ml - 20 mn: 20,5 ml
  Emission d'urine en ml - 30 mn: 18,5 ml
  Emission d'urine en ml - 40 mn: 15,5 ml
  Emission d'urine en ml - 50 mn: 11,5 ml
  Emission d'urine en ml - 60mn: 8,5 ml
  Emission d'urine en ml TOTAL: 97,0 ml
Chien Beagle; Dose I.V. 5 mg/kg, 0,5 mn
  Emission d'urine en ml 0,5 mn: 9,5 ml
Chien Beagle; Dose I.V. 5 mg/kg
  Emission d'urine en ml 5-10 mn: 10,5 ml
  Emission d'urine en ml - 20 mn: 10,0 ml
  Emission d'urine en ml - 30 mn: 8,0 ml
  Emission d'urine en ml - 40 mn: 9,0 ml
  Emission d'urine en ml - 50 mn: 5,5 ml
  Emission d'urine en ml - 60mn: 7,0 ml
  Emission d'urine en ml TOTAL: 59,5 ml
Chien Beagle; Dose I.V. 10 mg/kg, 0,5 mn
  Emission d'urine en ml 0,5 mn: 4,0 ml
Chien Beagle; Dose I.V. 10 mg/kg
  Emission d'urine en ml 5-10 mn: 8,0 ml
  Emission d'urine en ml - 20 mn: 9,0 ml
  Emission d'urine en ml - 30 mn: 10,0 ml
  Emission d'urine en ml - 40 mn: 4,0 ml
  Emission d'urine en ml - 50 mn: 8,0 ml
  Emission d'urine en ml - 60mn: 7,5 ml
  Emission d'urine en ml TOTAL: 50,5 ml
Chien Beagle; voie I.P., une heure
  dose avec laquelle la diurèse maximale au bout d'une heure est atteinte: 2 mg/kg

## CCN(CC)n1c(=O)[nH]c2cc(Cl)c(S(N)(=O)=O)cc2c1=O [Composé B, Chloro-7 diéthylamino-3 dioxo-2,4 (1H,3H) sulfonamido-6 quinazoline]
Rats mâles; dose 1 mg/kg
  K = nbre de meq/L pour 100 g d'animal: +15 meq/L pour 100 g d'animal
  Na = nbre de meq/L pour 100 g d'animal: +160 meq/L pour 100 g d'animal
Rats mâles; dose 10 mg/kg
  dV = pourcentage du volume d'urine émise par rapport au lot témoin et ramené à 100 g de poids corporel: +30%
  K = nbre de meq/L pour 100 g d'animal: +35 meq/L pour 100 g d'animal
  Na = nbre de meq/L pour 100 g d'animal: +582 meq/L pour 100 g d'animal
Rats mâles; dose 25 mg/kg
  dV = pourcentage du volume d'urine émise par rapport au lot témoin et ramené à 100 g de poids corporel: +35%
  K = nbre de meq/L pour 100 g d'animal: +33 meq/L pour 100 g d'animal
  Na = nbre de meq/L pour 100 g d'animal: +671 meq/L pour 100 g d'animal
Rats mâles; dose 50 mg/kg
  dV = pourcentage du volume d'urine émise par rapport au lot témoin et ramené à 100 g de poids corporel: +31%
  K = nbre de meq/L pour 100 g d'animal: +21 meq/L pour 100 g d'animal
  Na = nbre de meq/L pour 100 g d'animal: +550 meq/L pour 100 g d'animal
Rats mâles
  diurèse: augmentent la diurèse

## NS(=O)(=O)c1cc2c(=O)n(N3CCCCC3)c(=O)[nH]c2cc1Cl [Composé C, Chloro-7 pipéridino-3 dioxo-2,4 (1H,3H) sulfonamido-6 quinazoline]
Rats mâles; dose 0,1 mg/kg
  K = nbre de meq/L pour 100 g d'animal: +15 meq/L pour 100 g d'animal
Rats mâles; dose 1 mg/kg
  dV = pourcentage du volume d'urine émise par rapport au lot témoin et ramené à 100 g de poids corporel: +15%
  K = nbre de meq/L pour 100 g d'animal: +17 meq/L pour 100 g d'animal
  Na = nbre de meq/L pour 100 g d'animal: +141 meq/L pour 100 g d'animal
Rats mâles; dose 10 mg/kg
  dV = pourcentage du volume d'urine émise par rapport au lot témoin et ramené à 100 g de poids corporel: +35%
  K = nbre de meq/L pour 100 g d'animal: +47 meq/L pour 100 g d'animal
  Na = nbre de meq/L pour 100 g d'animal: +513 meq/L pour 100 g d'animal
Rats mâles; dose 25 mg/kg
  dV = pourcentage du volume d'urine émise par rapport au lot témoin et ramené à 100 g de poids corporel: +31%
  K = nbre de meq/L pour 100 g d'animal: +42 meq/L pour 100 g d'animal
  Na = nbre de meq/L pour 100 g d'animal: +583 meq/L pour 100 g d'animal
Rats mâles; dose 50 mg/kg
  dV = pourcentage du volume d'urine émise par rapport au lot témoin et ramené à 100 g de poids corporel: +18%
  K = nbre de meq/L pour 100 g d'animal: +57 meq/L pour 100 g d'animal
  Na = nbre de meq/L pour 100 g d'animal: +531 meq/L pour 100 g d'animal
Rats mâles
  diurèse: augmentent la diurèse

## NS(=O)(=O)c1cc(C(=O)O)c(NCc2ccco2)cc1Cl [Furosémide, acide chloro-4 furfurylamino-2 sulfamoyl-5 benzoïque, reference compound]
Rats mâles; dose 10 mg/kg
  K = nbre de meq/L pour 100 g d'animal: -19 meq/L pour 100 g d'animal
Rats mâles; dose 25 mg/kg
  dV = pourcentage du volume d'urine émise par rapport au lot témoin et ramené à 100 g de poids corporel: +18%
Rats mâles; dose 50 mg/kg
  dV = pourcentage du volume d'urine émise par rapport au lot témoin et ramené à 100 g de poids corporel: +76%
  K = nbre de meq/L pour 100 g d'animal: +84 meq/L pour 100 g d'animal
  Na = nbre de meq/L pour 100 g d'animal: +639 meq/L pour 100 g d'animal
Rats mâles
  diurèse: augmentent la diurèse
RAT; dose 25 mg/kg (doses équivalentes)
  fuite de potassium: 30,3%

## NS(=O)(=O)c1cc2c(cc1Cl)NCNS2(=O)=O [Hydrochloro-thiazide, dioxo-1,1 chloro-6 dihydro-3,4 sulfamoyl-7 (1,2,4)H benzothiadiazine, reference compound]
Rats mâles; dose 0,1 mg/kg
  Na = nbre de meq/L pour 100 g d'animal: +6,9 meq/L pour 100 g d'animal
Rats mâles; dose 1 mg/kg
  dV = pourcentage du volume d'urine émise par rapport au lot témoin et ramené à 100 g de poids corporel: +38%
  K = nbre de meq/L pour 100 g d'animal: +29 meq/L pour 100 g d'animal
  Na = nbre de meq/L pour 100 g d'animal: +374 meq/L pour 100 g d'animal
Rats mâles; dose 10 mg/kg
  dV = pourcentage du volume d'urine émise par rapport au lot témoin et ramené à 100 g de poids corporel: +40%
  K = nbre de meq/L pour 100 g d'animal: +22 meq/L pour 100 g d'animal
  Na = nbre de meq/L pour 100 g d'animal: +430 meq/L pour 100 g d'animal
Rats mâles; dose 25 mg/kg
  dV = pourcentage du volume d'urine émise par rapport au lot témoin et ramené à 100 g de poids corporel: +48%
  K = nbre de meq/L pour 100 g d'animal: +44 meq/L pour 100 g d'animal
  Na = nbre de meq/L pour 100 g d'animal: +504 meq/L pour 100 g d'animal
Rats mâles
  diurèse: augmentent la diurèse
